Assay results reported in publication PMC11124362, “Metabolism, Disposition, Excretion, and Potential Transporter Inhibition of 7–16, an Improving 5-HT2A Receptor Antagonist and Inverse Agonist for Parkinson’s Disease” (Molecules, 2024).

Experiments:
[1] = Metabolite identification in human liver microsomes; format: in vitro ADME; conditions: 7–16 10 µM, liver microsomes 1 mg/mL, NADPH, 37 °C, 60 min
Procedure: (§1) In accordance with our previous methods, 7–16 (10 µM) was incubated with mouse, rat, dog, monkey, and human liver microsome proteins (1 mg/mL) in 100 mM sodium phosphate buffer (pH 7.4) containing 10 mM magnesium chloride and 2 mM NADPH at 37 °C for 60 min. All samples were prepared in duplicates. The reactions were terminated by adding three times the volume of ice-cold acetonitrile (600 µL) and stored at −20 °C until analysis. Control samples without NADPH and 0-time point samples were included. As a positive control, testosterone (10 µM), which was metabolized to produce the hydroxylation metabolite, was used as a substrate to confirm the activity of the incubation system.
(§2) After pre-treatments, the samples were analyzed by an Acquity UPLC system coupled with a diode array detector (Waters Corporation, Milford, MA, USA) and Q Exactive HRMS (Thermo Electron Corporation, Waltham, MA, USA) (UPLC–UV-Q Exactive HRMS). Samples were separated on an Agilent XDB C18 column (150 × 2.1 mm i.d. 3.5 μm, Agilent Corporation, Santa Clara, CA, USA) at 40 °C by gradient elution with water and acetonitrile containing 0.1% formic acid. The flow rate was 0.40 mL/min. The ultraviolet (UV) detection wavelength was 286 nm. Q Exactive HRMS were operated at positive ion mode (3.5 kV) using a heating electrospray ionization source. Mass calibration was required to be performed before conducting experiments so as to achieve the best mass accuracy and mass calibration should be performed every five days. The metabolites were detected by full MS/dd-MS^2 analysis from m/z 100 to m/z 1000. The resolution of the first-class scan and second-class scan was 70,000 and 17,500, respectively. Thermo Compound Discover software was used to identify expected and unknown metabolites, and we finally proposed the 7–16 metabolic pathways based on the deduced metabolites and relevant drug biotransformation knowledge.

CYP1A2 [2] = assay: Metabolic phenotype by rhCYP isozymes, CYP1A2; format: in vitro ADME, human; conditions: 7–16 1 µM
Procedure: (§3) Based on the result of metabolite identification, two metabolites were selected as targets for metabolic phenotyping analysis. Seven CYP isozymes (CYP1A2, CYP2B6, CYP2C8, CYP2C9, CYP2C19, CYP2D6, and CYP3A4) were investigated using the rhCYP isozymes method. In brief, 7–16 (1 µΜ) was incubated with each rhCYP isozyme ([…]) in 100 mM sodium phosphate buffer (pH 7.4) containing 3 mM magnesium chloride. After 10 min of preincubation at 37 °C, the reactions were initiated by adding NADPH (1 mM) and then incubated at 37 °C in a shaking water bath for 0, 5, 15, and 30 min. The specific substrates of each rhCYP isozyme were incubated as the above method to confirm the activity of the incubation system. The samples were prepared in triplicates. The reactions were terminated by adding three times the volume of ice-cold acetonitrile (600 µL) and stored at −20 °C until analysis. After pre-treatment, the samples were determined by the LC–MS/MS (Shimadzu Exion-Triple Quad 4500) method. The relative contribution rate of each isozyme to the metabolism of 7–16 was evaluated in HLMs using the following formula: Contributionx% = Vx × Abundancex (pmol/mg protein)/Σ(Vi × Abundancei). Vx (µL/min/pmol) is the production rate of metabolites for each rhCYP isozyme.

[3] = Metabolite identification in monkey liver microsomes; format: in vitro ADME; conditions: 7–16 10 µM, liver microsomes 1 mg/mL, NADPH, 37 °C, 60 min
Procedure: as §1, §2

[4] = Metabolite identification in dog liver microsomes; format: in vitro ADME; conditions: 7–16 10 µM, liver microsomes 1 mg/mL, NADPH, 37 °C, 60 min
Procedure: as §1, §2

CYP2C9 = assay: Metabolic phenotype by rhCYP isozymes, CYP2C9; format: in vitro ADME, human; conditions: 7–16 1 µM
Procedure: as §3

CYP1A2 [5] = system: CYP1A2; set-up: method as in PMID 35279606; conditions: previous study; read-out: CYP1A2 inhibition IC50; cited from earlier work
5-HT2A receptor = biological target: 5-HT2A receptor; set-up: method as in PMID 35279606; conditions: cited from earlier work
CYP2C8 = assay: Metabolic phenotype by rhCYP isozymes, CYP2C8; format: in vitro ADME, human; conditions: 7–16 1 µM
Procedure: as §3

## CN1CCC(N(Cc2ccc(F)cn2)C(=O)NCc2ccc(OCC(F)(F)F)cc2)CC1 [7–16, 3-(4-(2,2,2-trifluoroethoxy)benzyl)-1-((5-fluoropyridin-2-yl)methyl)-1-(1-methylpiperidin-4-yl) urea]
[1]
  Relative Abundance, UV Area% Human: 95.2%
CYP1A2 [2]
  relative contribution of CYP1A2 to metabolism: little or no contribution
[3]
  Relative Abundance, UV Area% Monkey: 90.6%
[4]
  Relative Abundance, UV Area% Dog: 77.2%
CYP2C9
  relative contribution of CYP2C9 to metabolism: little or no contribution
CYP1A2 [5]
  IC50: 8.5 µM
5-HT2A receptor; previous study, read-out: 5-HT2A receptor antagonist activity IC50
  IC50: 0.54 nM
5-HT2A receptor; versus pimavanserin
  fold higher 5-HT2A receptor antagonist activity than pimavanserin: 50 fold
CYP2C8
  relative contribution of CYP2C8 to metabolism: little or no contribution
